What was measured:
[1] = system: iPS cell clones (201B6, 253G1, 263G4 and 585A1) and ES cell clone (KhES1, KhES3 and H9); test: Level of OSR1 expression after differentiation from each iPS cell clone or ES clone (novel induction method 3); format: cell-based, human
Description: White bar indicates the result using AM580. Black bar indicates the result using TTNPB. Grey bar indicate the result of conventional method without AM580 and TTNPB.

[2] = system: OSR1-GFP reporter iPS cells; test: Induction of differentiation into intermediate mesoderm cells (novel induction methods 2 and 3), flow cytometry using OSR1 (GFP) expression; time course; format: cell-based, human; settings: for time at which growth of OSR1 positive cells had plateau after the medium change: cell numbers measured 3, 5, 8 or 12 days after change to medium with 1 micromolar retinoic acid derivative
Protocol: (§1) Human iPS cells (201B7) provided by Dr. Yamanaka at Kyoto University were cultured by the known method (Takahashi, K. et al., Cell 131: 861-872). Subsequently, a GFP-PGK-Neo cassette was inserted into a site downstream of the OSR1 initiation codon of a BAC clone (RP11-458J18) (BACPAC RESOURCES) using pRed/ET (Gene Bridges GmbH), so as to prepare a OSR1-GFP BAC transgene. The resulting modified BAC clone was introduced into the human iPS cell and the OSR1-GFP reporter iPS cell line expressing GFP in conjunction with the expression of endogenous OSR1 was established.
(§2) The above OSR1-GFP reporter iPS cells were cultured to confluence on a 10-cm dish using SNL cells as feeder cells (McMahon, A. P. and Bradley, A., 1990, Cell 62; 1073-1085). A CTK solution was added to the cells for dissociation, the feeder cells were removed, and the iPS cells were dispersed into single cells with the addition of Accutase.
Subsequently, the iPS cells were suspended in a DMEM/F12 medium containing Glutamax, 2% FBS, and PenStrep, and a combination of (1) 10 micromolar Y-27632 (ROCK inhibitor), 3 micromolar CHIR99021, and 1 micromolar AM580 or (2) 10 micromolar Y-27632 (ROCK inhibitor), 3 micromolar CHIR99021, and 1 micromolar TTNPB was added thereto. Subsequently, the cell suspension was transferred to a dish coated with 0.1% gelatin, and culture was conducted for 2 days.
Thereafter, the medium was removed, the culture product was washed in PBS, and the iPS cells were then cultured for an additional 8 days (novel induction method 2) or 3 days (novel induction method 3) in a medium prepared by adding 1 micromolar AM580 or 1 micromolar TTNPB to a DMEM/F12 medium containing 2-mercaptoethanol, Glutamax, 10% KOCKOUT SR, 0.1 mM MEM NEAA, and PenStrep. During culture, the medium was exchanged with fresh medium once every 3 days in the case of the novel induction method 2.
After the cell culture had been conducted for 8 or 3 days, the cells were analyzed by flow cytometry (FACS) using OSR1 expression as an indicator.
Next, the length of time from medium change was studied. Briefly, number of OSR1 positive cells and total cells were measured at 3 days (novel induction method 3), 5 days, 8 days (novel induction method 2) or 12 days after the medium was changed to a medium prepared by adding 1 micromolar AM580 or 1 micromolar TTNPB to a DMEM/F12 medium containing 2-mercaptoethanol, Glutamax, 10% KOCKOUT SR, 0.1 mM MEM NEAA, and PenStrep (FIG. 4). The growth of OSR1 positive cells had plateau at 8 day after the medium change.

[3] = Cytotoxicity compared with ATRA; format: cell-based; settings: stated as effect of the invention, no test described
[4] = system: OSR1-GFP reporter iPS cells; test: Induction of differentiation into intermediate mesoderm cells (novel induction method 1), flow cytometry using OSR1 (GFP) expression; format: cell-based, human; settings: novel induction method 1: 2 days 3 micromolar CHIR99021 + 10 micromolar Y-27632, then 8 days 1 micromolar retinoic acid derivative
Protocol: as §1, §2
Subsequently, the iPS cells were suspended in a DMEM/F12 medium containing Glutamax, 2% FBS, and PenStrep, and 10 micromolar Y-27632 and 3 micromolar CHIR99021 were added thereto. Subsequently, the cell suspension was transferred to a dish coated with 0.1% gelatin, and culture was conducted for 2 days. […]
After the cell culture had been conducted for 8 days, the cells were analyzed by flow cytometry (FACS) using OSR1 expression as an indicator.

[5] = system: intranuclear receptor of retinoic acid (RAR); test: Activity through retinoic acid pathway compared with ATRA; settings: stated as effect of the invention, no test described
[6] = system: OSR1-GFP reporter iPS cells; test: Suspention culture of OSR1 (GFP) positive cells to form sphere, immunostaining; format: cell-based, human; settings: novel induction method 3 with 1 micromolar TTNPB, then suspention culture on low cell adhesion plate
Protocol: (§3) The above OSR1-GFP reporter iPS cells were dispersed into single cells in a manner similar to Example 2. Subsequently, the iPS cells were suspended in a DMEM/F12 medium containing Glutamax, 2% FBS, and PenStrep, and a combination of 10 micromolar Y-27632, 3 micromolar CHIR99021, and 1 micromolar TTNPB was added thereto. Subsequently, the cell suspension was transferred to a dish coated with 0.1% gelatin, and culture was conducted for 2 days. Thereafter, the medium was removed, the culture product was washed in PBS, and the iPS cells were then cultured for an additional 3 days (novel induction method 3) in a medium prepared by adding 1 micromolar TTNPB to a DMEM/F12 medium containing 2-mercaptoethanol, Glutamax, 10% KOCKOUT SR, 0.1 mM MEM NEAA, and PenStrep. After isolating GFP positive cells from obtained cells with flow cytometer, 1×10^5 GFP positive cells were transferred to a low cell adhesion plate (PrimeSurface, Sumitomo Bakelite co.), and cultured in DMEM/F12 medium containing 10 micromolar Y-27632, 2-mercaptoethanol, Glutamax, 10% KOCKOUT SR, 0.1 mM MEM NEAA, and PenStrep in suspention to form cell sphere. During culture, the medium was exchanged with fresh medium once every 3 days.
Obtained cells were analyzed with immunostaining (FIG. 8).

[7] = system: OSR1-GFP reporter iPS cells; test: Organ culture of OSR1 (GFP) positive cells with mouse metanephric cells, immunostaining; format: cell-based, human; settings: novel induction method 3 with 1 micromolar TTNPB, then mixed with E11.5 mouse metanephric cells, 7 days floating culture
Protocol: The above OSR1-GFP reporter iPS cells were dissociated into single cells in a manner similar to Example 2. Subsequently, the iPS cells were suspended in a DMEM/F12 medium containing Glutamax, 2% FBS, and PenStrep, and a combination of 10 micromolar Y-27632, 3 micromolar CHIR99021, and 1 micromolar TTNPB was added thereto. Subsequently, the cell suspension was transferred to a dish coated with 0.1% gelatin, and culture was conducted for 2 days. Thereafter, the medium was removed, the culture product was washed in PBS, and the iPS cells were then cultured for an additional 3 days (novel induction method 3) in a medium prepared by adding 1 micromolar TTNPB to a DMEM/F12 medium containing 2-mercaptoethanol, Glutamax, 10% KOCKOUT SR, 0.1 mM MEM NEAA, and PenStrep. After isolating GFP positive cells from obtained cells with flow cytometer, 1×10^4 GFP positive cells were mixed with 1×10^5 mouse metanephric cells obtained from E11.5 mouse embryo on a low cell adhesion plate (PrimeSurface). The next day, cell sphere was transferred on the Isopore™ Membrane Filters (Merck Millipore) floated on Improve MEM medium containing 10 micromolar Y-27632, 10% FBS and PenStrep. During culture, the medium was exchanged with fresh medium once every 3 days. Obtained cells were analyzed with immunostaining at 7 days after floating culture (FIG. 9).

[8] = system: OSR1-GFP reporter iPS cells; test: Long term culture of OSR1 (GFP) positive cells, RT-PCR and immunostaining; format: cell-based, human; settings: novel induction method 3 with 1 micromolar TTNPB, then 8 days with 100 ng/ml BMP7, 100 ng/ml Wnt3a on Matrigel
Protocol: as §3, with “cells were dissociated into single” for “cells were dispersed into single”, “flow cytometer, the GFP positive” for “flow cytometer, 1×10^5 GFP positive”, “to a dish coated with Matrigel (BD), and cultured” for “to a low cell adhesion plate (PrimeSurface, Sumitomo Bakelite co.), and cultured”, “micromolar Y-27632, 100 ng/ml BMP7, 100 ng/ml Wnt3a, 2-mercaptoethanol, Glutamax,” for “micromolar Y-27632, 2-mercaptoethanol, Glutamax,”, “and PenStrep for 8 days. During culture,” for “and PenStrep in suspention to form cell sphere. During culture,”, “3 days. Obtained cells were analyzed with RT-PCR (FIG. 7A) and immunostaining (FIG. 7B). […]” for “3 days.”

[9] = novel induction method 2: 2 days 3 micromolar CHIR99021 + 10 micromolar Y-27632 + 1 micromolar retinoic acid derivative, then 8 days 1 micromolar retinoic acid derivative
[10] = novel induction method 3: 2 days 3 micromolar CHIR99021 + 10 micromolar Y-27632 + 1 micromolar retinoic acid derivative, then 3 days 1 micromolar retinoic acid derivative

Row | SMILES | differentiation of further iPS and ES cell clones into intermediate mesoderm cells [1] | time at which growth of OSR1 positive cells had plateau after the medium change [2] | induction of OSR1-positive cells (FACS) [2, 9] | induction of OSR1-positive cells (FACS) [2, 10] | cytotoxicity relative to ATRA [3] | induction of OSR1-positive cells (FACS) [4] | activity relative to all-trans retinoic acid (ATRA) [5] | luminal structure formation from OSR1 positive cells by forming sphere [6] | luminal structure formation from OSR1 positive cells by mixed culture with organ [7] | further differentiation of obtained OSR1 positive cells [8]
1 | CC1(C)CCC(C)(C)c2cc(C(=O)Nc3ccc(C(=O)O)cc3)ccc21 [AM580, 4-[[(5,6,7,8-tetrahydro-5,5,8,8-tetramethyl-2-naphthalenyl)carbonyl]amino]-benzoic acid] | could be differentiated into intermediate mesoderm cells | 8 days | OSR1-positive cells were successfully induced | OSR1-positive cells were successfully induced | lower cytotoxicity compared with ATRA | OSR1-positive cells were successfully induced | higher than that of all-trans retinoic acid (ATRA) |  |  | 
2 | C/C(=C\c1ccc(C(=O)O)cc1)c1ccc2c(c1)C(C)(C)CCC2(C)C [TTNPB, 4-[(1E)-2-(5,6,7,8-tetrahydro-5,5,8,8-tetramethyl-2-naphthalenyl)-1-propen-1-yl]-benzoic acid] | could be differentiated into intermediate mesoderm cells | 8 days | OSR1-positive cells were successfully induced | OSR1-positive cells were successfully induced | lower cytotoxicity compared with ATRA | OSR1-positive cells were successfully induced | higher than that of all-trans retinoic acid (ATRA) | luminal structure could be constructed | luminal structure could be constructed | could be further differentiated into renal precursor cells
